Assay results as given in ChEMBL document CHEMBL1131422, “N-(2-Benzoylphenyl)-L-tyrosine PPARgamma agonists. 1. Discovery of a novel series of potent antihyperglycemic and antihyperlipidemic agents” (J Med Chem, 1998).
Active and inactive are the calls of the source. No cut-off for these calls is given here.

Experiments:
Mus musculus [1] = organism: Mus musculus; test: Compound was tested for Antihyperlipidemic activity, activity is expressed as percent reduction of NEFAs; type: functional
Rattus norvegicus [2] = organism: Rattus norvegicus; test: Compound was tested for Antihyperlipidemic activity in Zucker Diabetic fatty rats, activity is expressed as percent reduction of NEFAs; type: functional
[3] = target: T1, Peroxisome proliferator-activated receptor alpha (Homo sapiens) (UniProt Q07869); conditions: CV-1; 10e-4 M
T1 sequence (whole entry): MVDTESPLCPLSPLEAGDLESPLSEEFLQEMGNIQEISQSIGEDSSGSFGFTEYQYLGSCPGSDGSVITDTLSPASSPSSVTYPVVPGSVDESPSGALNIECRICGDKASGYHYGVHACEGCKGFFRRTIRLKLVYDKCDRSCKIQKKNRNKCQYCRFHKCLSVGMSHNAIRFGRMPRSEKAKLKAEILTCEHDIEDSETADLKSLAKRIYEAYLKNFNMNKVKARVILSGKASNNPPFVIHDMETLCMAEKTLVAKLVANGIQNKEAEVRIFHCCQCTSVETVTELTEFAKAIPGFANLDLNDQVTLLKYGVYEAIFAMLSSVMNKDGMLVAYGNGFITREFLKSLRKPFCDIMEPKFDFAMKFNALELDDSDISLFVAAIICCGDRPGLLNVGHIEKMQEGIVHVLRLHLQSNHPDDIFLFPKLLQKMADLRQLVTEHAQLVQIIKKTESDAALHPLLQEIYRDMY

Rattus norvegicus [4] = organism: Rattus norvegicus; test: Compound was tested for Antihyperlipidemic activity in Zucker Diabetic fatty rats, activity is expressed as percent reduction of Triglycerides; type: functional
[5] = target: T2, Peroxisome proliferator-activated receptor delta (Mus musculus) (UniProt P35396); test: Compound was tested functionally in vitro for inducing 50% of the maximum alkaline phosphatase activity (Transactivation) against murine Peroxisome proliferator activated receptor delta using transfection assay in CV-1 cells; IA = Inactive at 10e-4 M; type: functional, cell-based
T2 sequence (whole entry): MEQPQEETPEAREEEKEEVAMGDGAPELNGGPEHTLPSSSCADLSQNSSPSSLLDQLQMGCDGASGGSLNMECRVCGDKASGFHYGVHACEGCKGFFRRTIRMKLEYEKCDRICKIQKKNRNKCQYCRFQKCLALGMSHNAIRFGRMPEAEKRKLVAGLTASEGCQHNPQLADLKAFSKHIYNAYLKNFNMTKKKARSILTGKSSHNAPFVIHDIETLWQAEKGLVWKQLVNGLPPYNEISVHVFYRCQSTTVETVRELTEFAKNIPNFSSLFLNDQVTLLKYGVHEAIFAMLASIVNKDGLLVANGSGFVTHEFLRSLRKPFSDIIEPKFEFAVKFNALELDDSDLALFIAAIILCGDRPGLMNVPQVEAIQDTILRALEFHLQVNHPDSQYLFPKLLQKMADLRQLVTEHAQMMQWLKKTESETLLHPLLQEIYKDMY

Mus musculus [6] = test: Compound was tested in vivo for Antihyperglycemic activity in mice, activity is expressed as percent reduction of plasma glucose.; type: functional
Mus musculus [7] = organism: Mus musculus; test: Compound was tested for Antihyperlipidemic activity, activity is expressed as percent increase of body weight
[8] = target: T3, Peroxisome proliferator-activated receptor alpha (Mus musculus) (UniProt P23204); test: Compound was tested functionally in vitro for inducing 50% of the maximum alkaline phosphatase activity (Transactivation) against murine Peroxisome proliferator activated receptor alpha using transfection assay in CV-1 cells; IA = Inactive at 10e-4 M; type: functional, cell-based
T3 sequence (whole entry): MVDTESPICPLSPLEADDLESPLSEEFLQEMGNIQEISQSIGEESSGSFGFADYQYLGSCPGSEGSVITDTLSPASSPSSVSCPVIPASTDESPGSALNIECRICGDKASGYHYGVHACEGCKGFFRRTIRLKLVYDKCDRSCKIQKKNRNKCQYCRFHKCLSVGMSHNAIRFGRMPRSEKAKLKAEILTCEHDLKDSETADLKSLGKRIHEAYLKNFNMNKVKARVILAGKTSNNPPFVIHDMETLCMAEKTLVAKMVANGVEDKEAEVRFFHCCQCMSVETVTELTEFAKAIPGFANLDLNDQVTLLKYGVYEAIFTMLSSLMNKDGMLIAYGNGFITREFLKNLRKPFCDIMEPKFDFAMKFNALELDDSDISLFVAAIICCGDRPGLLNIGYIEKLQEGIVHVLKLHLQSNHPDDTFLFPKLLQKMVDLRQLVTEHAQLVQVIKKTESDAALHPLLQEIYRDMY

[9] = target: T4, Peroxisome proliferator-activated receptor gamma (Mus musculus, UniProt P37238); test: Compound was tested functionally in vitro for inducing 50% of the maximum alkaline phosphatase activity (Transactivation) against murine Peroxisome proliferator activated receptor gamma using transfection assay in CV-1 cells; type: functional, cell-based
T4 sequence (P37238 whole entry): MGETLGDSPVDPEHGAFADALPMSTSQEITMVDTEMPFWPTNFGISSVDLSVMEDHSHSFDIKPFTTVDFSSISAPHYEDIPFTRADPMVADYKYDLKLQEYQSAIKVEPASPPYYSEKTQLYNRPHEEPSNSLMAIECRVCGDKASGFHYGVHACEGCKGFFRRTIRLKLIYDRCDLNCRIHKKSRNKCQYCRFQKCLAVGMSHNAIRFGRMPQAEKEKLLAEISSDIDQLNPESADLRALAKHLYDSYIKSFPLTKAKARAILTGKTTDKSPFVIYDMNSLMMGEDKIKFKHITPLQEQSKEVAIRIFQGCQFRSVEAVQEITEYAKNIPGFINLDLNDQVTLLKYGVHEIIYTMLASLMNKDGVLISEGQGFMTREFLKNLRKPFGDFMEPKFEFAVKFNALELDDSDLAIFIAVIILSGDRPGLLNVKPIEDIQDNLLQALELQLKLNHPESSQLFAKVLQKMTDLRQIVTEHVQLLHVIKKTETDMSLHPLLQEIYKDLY

[10] = target: T5, Peroxisome proliferator-activated receptor delta (Homo sapiens) (UniProt Q03181); conditions: CV-1; 10e-4 M
T5 sequence (whole entry): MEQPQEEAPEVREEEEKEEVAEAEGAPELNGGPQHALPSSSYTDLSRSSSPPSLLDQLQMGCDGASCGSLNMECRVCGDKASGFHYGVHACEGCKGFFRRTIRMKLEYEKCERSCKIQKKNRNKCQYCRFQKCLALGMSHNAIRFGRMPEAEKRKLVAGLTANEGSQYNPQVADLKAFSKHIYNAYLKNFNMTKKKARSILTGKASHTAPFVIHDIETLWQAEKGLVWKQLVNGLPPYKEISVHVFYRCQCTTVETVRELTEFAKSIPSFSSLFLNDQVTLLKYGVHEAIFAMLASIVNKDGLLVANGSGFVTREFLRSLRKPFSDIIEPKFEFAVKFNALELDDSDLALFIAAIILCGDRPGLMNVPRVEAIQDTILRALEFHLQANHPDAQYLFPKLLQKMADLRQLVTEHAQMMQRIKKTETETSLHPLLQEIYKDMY
Description: Compound was tested functionally in vitro for inducing 50% of the maximum alkaline phosphatase activity (Transactivation) against human Peroxisome proliferator activated receptor delta using transfection assay in CV-1 cells; IA = Inactive at 10e-4 M

Rattus norvegicus [11] = test: Compound was tested in vivo for Antihyperglycemic activity in Zucker Diabetic fatty rats, activity is expressed as percent reduction of plasma glucose; type: functional
Rattus norvegicus [12] = test: Compound was tested in vivo for Antihyperglycemic activity in Zucker Diabetic fatty rats, activity is expressed as percent reduction of HbA1C.; type: functional
Mus musculus [13] = organism: Mus musculus; test: Compound was tested for Antihyperlipidemic activity, activity is expressed as percent reduction of Triglycerides; type: functional
Rattus norvegicus [14] = organism: Rattus norvegicus; test: The compound was tested for Antihyperlipidemic activity in Zucker Diabetic fatty rats, activity is expressed as percent reduction of NEFAs; type: functional
Rattus norvegicus [15] = test: The compound was tested in vivo for Antihyperglycemic activity in Zucker Diabetic fatty rats, activity is expressed as percent reduction of HbA1C.; type: functional
Rattus norvegicus [16] = organism: Rattus norvegicus; test: The compound was tested for Antihyperlipidemic activity in Zucker Diabetic fatty rats, activity is expressed as percent reduction of Triglycerides; type: functional
Rattus norvegicus [17] = test: The compound was tested in vivo for Antihyperglycemic activity in Zucker Diabetic fatty rats, activity is expressed as percent reduction of plasma glucose; type: functional
[18] = target: T6, Peroxisome proliferator-activated receptor gamma (Homo sapiens, UniProt P37231); conditions: cv-1
T6 sequence (P37231 whole entry): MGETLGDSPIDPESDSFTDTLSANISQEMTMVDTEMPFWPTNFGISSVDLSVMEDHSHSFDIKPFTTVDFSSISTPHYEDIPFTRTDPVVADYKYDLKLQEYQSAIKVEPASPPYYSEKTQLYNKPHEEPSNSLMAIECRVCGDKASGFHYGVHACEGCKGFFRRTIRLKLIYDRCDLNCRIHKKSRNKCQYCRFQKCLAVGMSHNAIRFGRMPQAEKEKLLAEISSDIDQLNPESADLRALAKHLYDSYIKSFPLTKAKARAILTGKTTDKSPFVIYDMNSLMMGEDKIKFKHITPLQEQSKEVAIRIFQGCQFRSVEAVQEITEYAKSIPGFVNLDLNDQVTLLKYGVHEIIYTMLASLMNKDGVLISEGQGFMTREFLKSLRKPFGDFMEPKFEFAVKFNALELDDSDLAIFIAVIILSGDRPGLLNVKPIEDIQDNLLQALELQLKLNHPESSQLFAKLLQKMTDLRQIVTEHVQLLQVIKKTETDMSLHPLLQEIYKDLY
Description: (§1) Activation of peroxisome proliferator activated receptor gamma measured by induction of 50% of maximum alkaline phosphatase activity, transfection assay in CV-1 cells

[19] = target: T7, Peroxisome proliferator-activated receptor gamma (Homo sapiens) (UniProt P37231)
T7 sequence (whole entry): T6 sequence (P37231 whole entry)
Description: Tested for its ability to bind to Peroxisome proliferator activated receptor gamma using [3H]-BRL 49653 as radioligand in scintillation proximity assay (SPA)

[20] = target: T6, Peroxisome proliferator-activated receptor gamma
Description: In vitro binding to peroxisome proliferator activated receptor gamma (PPAR gamma) using [3H]-BRL 49653 as radioligand in scintillation proximity assay (SPA)

[21] = target: T8, Peroxisome proliferator-activated receptor alpha (Homo sapiens, UniProt Q07869); test: Compound was tested functionally in vitro for inducing 50% of the maximum alkaline phosphatase activity (Transactivation) against human Peroxisome proliferator activated receptor alpha using transfection assay in CV-1 cells; type: functional, cell-based
T8 sequence (Q07869 whole entry): T1 sequence (whole entry)

[22] = target: T6, Peroxisome proliferator-activated receptor gamma; remark: listed apart in the source
Description: as §1

[23] = target: T1, Peroxisome proliferator-activated receptor alpha (Homo sapiens); test: The compound was tested in vitro for inhibiting the 50% binding of Peroxisome proliferator activated receptor alpha

SMILES	Reduction (Mus musculus [1]) [%]	Log EC50 [5]	Reduction (Mus musculus [6]) [%]	body weight increase % (Mus musculus [7]) [%]	Log EC50 [8]	EC50 [9] [nM]	Log EC50 [10]	Reduction (Mus musculus [13]) [%]	also measured
CN(CCOc1ccc(C[C@H](Nc2ccccc2C(=O)c2ccccc2)C(=O)O)cc1)c1ccccn1 (stereo in doubt; 18)	46	inactive	58	6	inactive	13.2	inactive	61	Reduction (Rattus norvegicus [2]): 73%; Log EC50 [3]: inactive; Reduction (Rattus norvegicus [4]): 87%; Reduction (Rattus norvegicus [11]): 68%; Reduction (Rattus norvegicus [12]): 37%
Cc1c(C)c2c(c(C)c1O)CCC(C)(COc1ccc(CC3SC(=O)NC3=O)cc1)O2 (stereo unspecified) [TROGLITAZONE]	–	–	–	–	–	–	–	–	Reduction (Rattus norvegicus [14]): 81%; Reduction (Rattus norvegicus [15]): 29%; Reduction (Rattus norvegicus [16]): 87%; Reduction (Rattus norvegicus [17]): 61%
CN(CCOc1ccc(C[C@H](Nc2ccccc2C(=O)c2ccccc2)C(=O)O)cc1)c1nc2ccccc2o1	38	inactive	41	9	inactive	4.68	inactive	36	Log EC50 [18]: -8.58; Log Ki [19]: 8.83 µM; Ki [20]: 1.48 nM; EC50 [21]: 6460 nM; EC50 [22]: 2.63 nM; pKi [23]: 5.92
